Data as given in publication PMC4795541, “A Rapid and Quantitative Flow Cytometry Method for the Analysis of Membrane Disruptive Antimicrobial Activity” (PLoS ONE, 2016).
Converted amounts (≈) assume the structure as drawn. Like-named read-outs stand apart in the source and are kept apart here. Marks after values point to notes of the source that are not given here. Where a SMILES comes first, the peptide text is derived from it. Where no end group is shown, it is not given here. [ ]: non-standard residue; d: D form. Phe(ol) = N[C@H](CO)Cc1ccccc1; Dab = NCC[C@H](N)C(=O)O; Dap = NC[C@H](N)C(=O)O; Aib = CC(C)(N)C(=O)O

Legend:
S. mutans Ingbritt [1] = tested on: S. mutans Ingbritt
Excerpt: (§1) The bacterial strains; Fusobacterium nucleatum ATCC 25586, Streptococcus mutans Ingbritt, Staphylococcus aureus (MSSA) ATCC 29213; Staphylococcus aureus (MRSA) ATCC 43300; Enterococcus faecalis ATCC 29212; Enterobacter aerogenes ATCC 13048; Pseudomonas aeruginosa strain PAO1-LAC, ATCC 47085; Klebsiella pneumoniae ATCC 13883; Acinetobacter baumannii strain 2208, ATCC 19606; Escherichia coli ATCC 25922 lyophilised or glycerol stocks were obtained from the culture collection of the Oral Health Cooperative Research Centre, The Melbourne Dental School, University of Melbourne, Australia. These strains were selected for this study as they are widely used in antimicrobial studies and are considered to be important pathogens and major targets for antibiotic resistant studies. Bacteria were grown aerobically and maintained by passage at ambient temperature (E. coli, K. pneumoniae, A. baumannii and S. aureus strains) or at 37°C (P. aeruginosa, E. faecalis and E. aerogenes) on horse blood agar (10% v/v defibrinated horse blood, 4.4% w/v Oxoid Blood Agar Base No. 2). S. mutans and F. nucleatum were grown anaerobically (MK3 anaerobic workstation, Don Whitley Scientific Limited, England) and maintained by passage at 37°C on Todd Hewitt agar (3.6% w/v Oxoid Todd-Hewitt Broth, 1.5% w/v sucrose, 1.5% w/v BactoTM Agar, 0.8% w/v Oxoid Yeast Extract) or horse blood agar, respectively. For the antimicrobial peptide assays a 20 mL starter culture was produced by taking single colonies from blood or Todd Hewitt agar plates, respectively, to inoculate either: Luria Broth (LB; 1% w/v BactoTM Tryptone, 1% w/v NaCl, 0.5% w/v Oxoid Yeast Extract, pH 7.5, Thermo Scientific Pty, Ltd, Sydney, Australia) for bacteria; E. coli, K. pneumoniae, P. aeruginosa, A. baumannii, E. faecalis, E. aerogenes and S. aureus which were grown aerobically at 37°C, or Todd Hewitt broth (3.6% w/v Oxoid Todd-Hewitt Broth, 1.5% w/v sucrose, 0.8% w/v Oxoid Yeast 9 Extract) for S. mutans, or Brain Heart Infusion broth (BHI; 3.7% w/v Oxoid BHI, 0.05% w/v L-cysteine) for F. nucleatum which were both grown anaerobically at 37°C. After overnight incubation, 0.5–2.0 mL of the starter culture was used to inoculate the appropriate fresh broth (200 mL) and growth monitored at 650 nm using a spectrophotometer (model 275E; Perkin-Elmer, Sydney, Australia) with culture purity checked by microscopic examination and culture. Bacteria were harvested during late exponential growth phase and viability and bacteria/mL determined using a BacLight viability kit (Invitrogen, Sydney, Australia) and a Quanta SC-MPL flow cytometer (Beckman coulter Pty, Ltd, Sydney, Australia).
(§2) Antibacterial assays were undertaken to determinate the minimum inhibitory concentration (MIC), minimum bactericidal concentration (MBC) and minimum membrane disruptive concentration (MDC) of each of the antimicrobial peptides (AMP) and AMP analogues (S1 Table). For each bacterim a stock solution (2.5 × 10^6 cells/mL) in the respective media was made and an aliquot incubated with AMPs within 15 minutes from viable cell count and stock preparation. All AMPs were dissolved in DMSO and a 500 μM stock solution prepared by adding the respective media and serial dilutions (250–0.244 μM) of the AMP in media (100 μL/well) made just prior addition of bacteria. […] One hundred microliter aliquots of the bacterial stock solution (2.5 × 10^5 cells/well) were added to the AMP serial dilutions and incubated at 37°C for 90 min. Assay preparation and incubations were conducted in aerobic or anaerobic conditions dependent on the bacteria. Bacteria were also incubated in the absence of AMP to serve as a growth control for the assay. After the 90 minute incubation period the antimicrobial activity (MIC, MBC and MDC) was determined as follows;
For determination of MBC, the CLSI protocol was followed, with the modifications being that due to the rapid action of the AMPs the assay incubation time was shortened from 16–20 hours to 90 minutes.

S. mutans Ingbritt [2] = tested on: S. mutans Ingbritt; remark: listed apart in the source
Excerpt: as §1, §2
(§3) For MIC the CLSI broth microdilution assay was followed as we have previously described.

F. nucleatum ATCC 25586 = tested on: F. nucleatum ATCC 25586
Excerpt: as §1, §2, §3

[3] = tested on: HEK-293 (ATCC CRL-1573) cells; test: Inhibition of cell proliferation assay (MTS); assay type: cell-based; settings: for IC50: HEK-293 cells 5×10^3, EMEM + 10% FBS, 28 h, MTS, A490, linear regression, maximum peptide concentration = 1000 µM; for Therapeutic Index (proliferation): IC50/MDC50 (F. nucleatum), given as x : 1
Experimental: After 28 h, 20 μL of 3-(4,5-dimethylthiazol-2-yl)-5-(3-carboxymethoxyphenyl)-2-(4-sulfophenyl)-2H-tetrazolium (MTS) solution (CellTiter 96 AQueous Non-Radioactive Cell Proliferation Assay kit, Promega) were added to each well and the plates were incubated for a further 1–2 h at 37°C, 5% CO2 incubator. Cell proliferation was determined by measuring absorbance at 490 nm using a microplate reader (PerkinElmer 1420 Multilabel Counter VICTOR3). Positive and negative controls for inhibition were taken as HEK-293 cells incubated with mytomycin C (5 μg/mL, Sigma Pty Ltd) and HEK-293 cells incubated in media alone, respectively. The percentage of inhibition was calculated using the following formula: % Inhibition = [(A490 test sample—A490 negative control) / (A490 positive control—A490 negative control)] × 100
The percentage of inhibition was plotted against peptide concentration and linear regression analysis was used to determine the AMP concentration needed to inhibit 50% (IC50) of the HEK-293 cells.

[4] = S. mutans Ingbritt, 90 min peptide/bacteria incubation, CFU on agar, ≥ 99.9% reduction, average of 3 assays ± SD
[5] = S. mutans Ingbritt, 90 min peptide/bacteria incubation at 37°C, then growth at OD650, average of 3 assays ± SD
[6] = F. nucleatum ATCC 25586, 2.5 × 10^5 cells/well, 90 min peptide/bacteria incubation at 37°C, then growth at OD650, average of 3 assays ± SD

| Compound | MBC (S. mutans Ingbritt [1]; [4]) | MIC (S. mutans Ingbritt [2]; [5]) | MIC (F. nucleatum ATCC 25586; [6]) [µM] | MBC (S. mutans Ingbritt [1]; Ingbritt) | IC50 [3] [µM] | Therapeutic Index (proliferation) [3] | MIC (S. mutans Ingbritt [2]; Ingbritt, 24 h) | MIC (F. nucleatum ATCC 25586; ATCC 25586, 24 h) | MBC (S. mutans Ingbritt [1]; S. mutans Ingbritt, 90 min peptide/bacteria incubation, CFU on agar, ≥ 99.9% reduction, average of 3 assays ± SD, listed as Native) [µM] | MIC (S. mutans Ingbritt [2]; S. mutans Ingbritt, 90 min peptide/bacteria incubation at 37°C, then growth at OD650, average of 3 assays ± SD, listed as Native) [µM] | MIC (F. nucleatum ATCC 25586; F. nucleatum ATCC 25586, 2.5 × 10^5 cells/well, 90 min peptide/bacteria incubation at 37°C, then growth at OD650, average of 3 assays ± SD, listed as Native) [µM] |
| --- | --- | --- | --- | --- | --- | --- | --- | --- | --- | --- | --- |
| CC(=O)NC(C)(C)C(=O)N1CCC[C@H]1C(=O)NC(C)(C)C(=O)N[C@@H](C)C(=O)NC(C)(C)C(=O)N[C@@H](C)C(=O)N[C@@H](CCC(N)=O)C(=O)NC(C)(C)C(=O)N[C@H](C(=O)NC(C)(C)C(=O)NCC(=O)N[C@@H](CC(C)C)C(=O)NC(C)(C)C(=O)N1CCC[C@H]1C(=O)N[C@H](C(=O)NC(C)(C)C(=O)NC(C)(C)C(=O)N[C@@H](CCC(=O)O)C(=O)N[C@@H](CCC(N)=O)C(=O)N[C@H](CO)Cc1ccccc1)C(C)C)C(C)C [Alamethicin] (Ac-[Aib]P[Aib]A[Aib]AQ[Aib]V[Aib]GL[Aib]PV[Aib][Aib]EQ[Phe(ol)]; N-terminus assumed) | 39.8 ± 0.3 µM (≈ 78.2 µg/mL) | 29.4 ± 8.2 µM (≈ 57.8 µg/mL) | 22.6 ± 12.7 (≈ 44.4 µg/mL) | – | – | – | – | – | – | – | – |
| CC[C@H](C)[C@H](NC(=O)CN)C(=O)NCC(=O)N[C@@H](CCN)C(=O)N[C@@H](Cc1ccccc1)C(=O)N[C@@H](CC(C)C)C(=O)N[C@@H](Cc1c[nH]cn1)C(=O)N[C@@H](CO)C(=O)N[C@@H](C)C(=O)N[C@@H](CCN)C(=O)N[C@@H](CCN)C(=O)N[C@@H](Cc1ccccc1)C(=O)NCC(=O)N[C@@H](CCN)C(=O)N[C@@H](C)C(=O)N[C@@H](Cc1ccccc1)C(=O)N[C@H](C(=O)NCC(=O)N[C@@H](CCC(=O)O)C(=O)N[C@H](C(=O)N[C@@H](CCSC)C(=O)N[C@@H](CC(N)=O)C(=O)N[C@@H](CO)C(N)=O)[C@@H](C)CC)C(C)C [Magainin-Dab] (H-GIG[Dab]FLHSA[Dab][Dab]FG[Dab]AFVGEIMNS-NH2; N-terminus assumed) | – | – | 6.3 ± 0.5 (≈ 14.8 µg/mL) | >200^c μM | 178 ± 39.4 | 32.4 : 1 | >200^c μM | – | – | – | – |
| CC[C@H](C)[C@H](NC(=O)CN)C(=O)NCC(=O)N[C@@H](CN)C(=O)N[C@@H](Cc1ccccc1)C(=O)N[C@@H](CC(C)C)C(=O)N[C@@H](Cc1c[nH]cn1)C(=O)N[C@@H](CO)C(=O)N[C@@H](C)C(=O)N[C@@H](CN)C(=O)N[C@@H](CN)C(=O)N[C@@H](Cc1ccccc1)C(=O)NCC(=O)N[C@@H](CN)C(=O)N[C@@H](C)C(=O)N[C@@H](Cc1ccccc1)C(=O)N[C@H](C(=O)NCC(=O)N[C@@H](CCC(=O)O)C(=O)N[C@H](C(=O)N[C@@H](CCSC)C(=O)N[C@@H](CC(N)=O)C(=O)N[C@@H](CO)C(N)=O)[C@@H](C)CC)C(C)C [Magainin-Dap] (H-GIG[Dap]FLHSA[Dap][Dap]FG[Dap]AFVGEIMNS-NH2; N-terminus assumed) | – | – | – | >200^c μM | 285 ± 19.4 | 19.1 : 1 | >200^c μM | 18.4±9.7^c μM | – | – | – |
| GIGKFLHSAKKFGKAFVGEIMNS-NH2 [Magainin II] | 109 ± 20.2 µM | 109.3 ± 20.4 µM | 10.2 ± 1.5 | – | 95.2 ± 32.2 | 20.2 : 1 | – | – | 117.1 ± 2.3 | 123.4 ± 9.2 | 10.1 ± 0.6 |
| GIGRFLHSARRFGRAFVGEIMNS-NH2 [Magainin-Arg] | – | – | – | 37.3±1.9^c μM | 64.5 ± 3 | 25.8 : 1 | 41.8±6.8^c μM | 2.5±0.3^c μM | – | – | – |
| GIGXFLHSAXXFGXAFVGEIMNS-CONH2 [Magainin-Orn] | >200^c μM | >200^c μM | 13.1 ± 0.5 | – | 168 ± 42.1 | 29.4 : 1 | – | – | – | – | – |
